Laboratory results from US20190275012A9, “SUBSTITUTED THIAZOLO-PYRIDINE COMPOUNDS AS MALT1 INHIBITORS” (Lupin Limited, priority 2016, published 2019).

Experiments:
[1] = tested on: NF-kB transcriptional activity in HEK-293-NF-kB-Luc cell line overexpressing MALT1; experiment: NF-kB reporter assay (luciferase, MALT1 stably overexpressed); assay type: cell-based; conditions: Homo sapiens, 24 h, HEK-293-NF-kB-Luc cells stably overexpressing MALT1, 24 h treatment, Bright Glo luminescence; read-out: NF-kB inhibition IC50
Procedure, shortened: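 HEK-293-NF-κB-Luc cells stably overexpressing MALT1 were seeded overnight, then exposed to test compounds for 24 h. Bright Glo added 10 min at ambient temperature and luminescence read; % inhibition calculated against 0.1% DMSO controls.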

OCI-Ly-10 cells = experiment: Anticancer assay (14 days), cell viability by CCK-8; assay type: cell-based; conditions: Homo sapiens, OCI-Ly10, 336 h, 14 days treatment, fresh treatment every 5th day, CCK-8 viability, read-out: Ly-10 (14d) inhibition IC50
Procedure: OCI-Ly-10 cells (UHN, Canada) seeded in culture media (IMDM+20% FBS) in 96-well plates were treated with various concentrations of the test compounds. Cells were treated for a period of 14 days (13-15 days depending on the confluency of cells) with fresh treatments every 5th day. After the first treatment, for all subsequent treatments, the cells were centrifuged, the spent media was removed and fresh media containing the test compound was added. Cell viability was assessed using CCK-8 kit (Dojindo Laboratories, China) as per manufacturer's instructions. Plates were read in colorimeter and absorbance was detected. (Detection at 450 nm; Background correction at 650 nm). % inhibition was calculated relative to the samples containing media with 0.1% DMSO alone as per the following formula

full length MALT1 enzyme = biological target: T1, full length MALT1 enzyme (Homo sapiens, UniProt Q9UDY8); experiment: MALT1 biochemical assay (fluorescence based, Ac-Leu-Arg-Ser-Arg-AMC cleavage); conditions: full length MALT1 protein, 2 h pre-incubation at RT, tetrapeptide substrate Ac-Leu-Arg-Ser-Arg-AMC, read-out: Malt 1 inhibition IC50
T1 construct: a fluorescence based assay with full length MALT1 enzyme
T1 sequence (Q9UDY8 1-824): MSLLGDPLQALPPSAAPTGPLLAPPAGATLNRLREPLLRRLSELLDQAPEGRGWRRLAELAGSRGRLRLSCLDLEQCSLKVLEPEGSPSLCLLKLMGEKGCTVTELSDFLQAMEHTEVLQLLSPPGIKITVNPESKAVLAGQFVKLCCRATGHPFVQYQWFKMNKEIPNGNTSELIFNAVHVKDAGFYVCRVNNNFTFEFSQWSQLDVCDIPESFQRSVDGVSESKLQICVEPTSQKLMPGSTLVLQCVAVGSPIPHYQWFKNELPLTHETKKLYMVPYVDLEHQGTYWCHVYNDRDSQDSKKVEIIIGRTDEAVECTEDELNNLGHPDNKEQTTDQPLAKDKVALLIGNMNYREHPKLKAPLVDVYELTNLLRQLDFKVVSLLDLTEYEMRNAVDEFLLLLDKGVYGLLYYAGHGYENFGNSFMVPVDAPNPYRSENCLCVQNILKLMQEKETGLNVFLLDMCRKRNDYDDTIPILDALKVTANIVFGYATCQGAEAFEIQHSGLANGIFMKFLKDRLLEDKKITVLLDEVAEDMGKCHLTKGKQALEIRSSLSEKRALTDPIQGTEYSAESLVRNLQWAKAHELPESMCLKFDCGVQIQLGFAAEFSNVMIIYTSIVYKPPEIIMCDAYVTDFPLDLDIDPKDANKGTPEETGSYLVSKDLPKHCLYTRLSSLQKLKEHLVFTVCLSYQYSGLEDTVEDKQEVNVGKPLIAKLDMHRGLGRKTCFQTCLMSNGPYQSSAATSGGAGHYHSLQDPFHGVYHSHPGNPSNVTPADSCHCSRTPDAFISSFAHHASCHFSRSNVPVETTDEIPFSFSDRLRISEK
Procedure, shortened: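 Full-length MALT1 (100-300 ng/well) was pre-incubated with compound for 2 h at RT, then 100 μM Ac-LRSR-AMC was added for 4-12 h. Buffer was 50 mM MES, 150 mM NaCl, 0.1% CHAPS, 1 M ammonium citrate, 10 mM DTT, pH 7, with 0.5% DMSO. IC50 was derived from AMC fluorescence (ex 360/em 460 nm).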

IC50 (OCI-Ly-10 cells) | IC50 (full length MALT1 enzyme) | SMILES | IC50 [1]
101 to 250 nM |  | CCOC(C)c1c(NC(=O)Nc2cnc(-n3nccn3)c(Cl)c2)cnc2sc(C)nc12 (racemic) [Compound 164, 1-(5-Chloro-6-(2H-1,2,3-triazol-2-yl)pyridin-3-yl)-3-(7-(1-ethoxyethyl)-2-methylthiazolo[5,4-b]pyridin-6-yl)urea] | 1 to 100 nM
501 to 1500 nM |  | COCC1CCCN(c2c(NC(=O)Nc3cnc(OC)c(Cl)c3)cnc3sc(C)nc23)C1 (single isomer, unassigned) [Compound 51b, 1-(5-chloro-6-methoxypyridin-3-yl)-3-(7-(3-(methoxymethyl)piperidin-1-yl)-2-methylthiazolo[5,4-b]pyridin-6-yl)urea] | 
26 to 100 nM |  | COc1nc(-n2ccnn2)c(Cl)cc1NC(=O)Nc1cnc2sc(C)nc2c1C(C)OC (single isomer, unassigned) [Compound 91b, 1-(5-Chloro-2-methoxy-6-(1H-1,2,3-triazol-1-yl)pyridin-3-yl)-3-(7-(1-methoxyethyl)-2-methylthiazolo[5,4-b]pyridin-6-yl)urea] | 
101 to 250 nM |  | Cc1nc2c(C3CCCO3)c(NC(=O)Nc3cnc(-n4nccn4)c(Cl)c3)cnc2s1 (single isomer, unassigned) [Compound 136b, 1-(5-Chloro-6-(2H-1,2,3-triazol-2-yl)pyridin-3-yl)-3-(2-methyl-7-(tetrahydrofuran-2-yl)thiazolo[5,4-b]pyridin-6-yl)urea] | 1 to 100 nM
26 to 100 nM |  | COC(C)c1c(NC(=O)Nc2ccc(-c3nnco3)c(Cl)c2)cnc2sc(C)nc12 (single isomer, unassigned) [Compound 203b, (S) or (R)-1-(3-Chloro-4-(1,3,4-oxadiazol-2-yl)phenyl)-3-(7-(1-methoxyethyl)-2-methylthiazolo[5,4-b]pyridin-6-yl)urea] | 1 to 100 nM
101 to 250 nM |  | COC(C)c1c(NC(=O)Nc2cnc(-n3nccn3)c(C(F)F)c2)cnc2sc(C)nc12 (single isomer, unassigned) [Compound 205b, (S) or (R)-1-(5-(Difluoromethyl)-6-(2H-1,2,3-triazol-2-yl)pyridin-3-yl)-3-(7-(1-methoxyethyl)-2-methylthiazolo[5,4-b]pyridin-6-yl)urea] | 101 to 500 nM
101 to 250 nM |  | COC(C)c1c(NC(=O)Nc2cnc(-n3ccnn3)c(C(F)F)c2)cnc2sc(C)nc12 (single isomer, unassigned) [Compound 206b, (S) or (R)-1-(5-(Difluoromethyl)-6-(1H-1,2,3-triazol-1-yl)pyridin-3-yl)-3-(7-(1-methoxyethyl)-2-methylthiazolo[5,4-b]pyridin-6-yl)urea] | 1 to 100 nM
101 to 250 nM |  | COC(C)c1c(NC(=O)Nc2ccc(-n3nccn3)c(C#N)c2)cnc2sc(C)nc12 (single isomer, unassigned) [Compound 208b, (S) or (R)-1-(3-Cyano-4-(2H-1,2,3-triazol-2-yl)phenyl)-3-(7-(1-methoxyethyl)-2-methylthiazolo[5,4-b]pyridin-6-yl)urea] | 
26 to 100 nM |  | CCOc1nc(-n2nccn2)c(C(F)(F)F)cc1NC(=O)Nc1cnc2sc(C)nc2c1C(C)OC (single isomer, unassigned) [Compound 221, (S) or (R)-1-(2-ethoxy-6-(2H-1,2,3-triazol-2-yl)-5-(trifluoromethyl)pyridin-3-yl)-3-(7-(1-methoxyethyl)-2-methylthiazolo[5,4-b]pyridin-6-yl)urea] | 1 to 100 nM
501 to 1500 nM |  | COCCc1c(NC(=O)Nc2cnc(OC)c(Cl)c2)cnc2sc(C)nc12 [Compound 33, 1-(5-Chloro-6-methoxypyridin-3-yl)-3-(7-(2-methoxyethyl)-2-methylthiazolo[5,4-b]pyridin-6-yl)urea] | 
101 to 250 nM |  | COCC(OC)c1c(NC(=O)Nc2cnc(OC)c(Cl)c2)cnc2sc(C)nc12 (stereo not drawn) [Compound 34a, 1-(5-chloro-6-methoxypyridin-3-yl)-3-(7-(1,2-dimethoxyethyl)-2-methylthiazolo[5,4-b]pyridin-6-yl)urea] | 101 to 500 nM
26 to 100 nM |  | O=C(Nc1cnc(-n2nccn2)c(Cl)c1)Nc1cnc2scnc2c1C1CC1 [Compound 35, 1-(5-Chloro-6-(2H-1,2,3-triazol-2-yl)pyridin-3-yl)-3-(7-cyclopropylthiazolo[5,4-b]pyridin-6-yl)urea] | 1 to 100 nM
26 to 100 nM |  | COCC(CN(C)c1c(NC(=O)Nc2cnc(-n3nccn3)c(Cl)c2)cnc2sc(C)nc12)OC (stereo not drawn) [Compound 43, 1-(5-Chloro-6-(2H-1,2,3-triazol-2-yl)pyridin-3-yl)-3-(7-((2,3-dimethoxypropyl)(methyl)amino)-2-methylthiazolo[5,4-b]pyridin-6-yl)urea] | 
501 to 1500 nM |  | COCCN(C)c1c(NC(=O)Nc2cnc(OC)c(Cl)c2)cnc2sc(C)nc12 [Compound 45, 1-(5-Chloro-6-methoxypyridin-3-yl)-3-(7-((2-methoxyethyl)(methyl)amino)-2-methylthiazolo[5,4-b]pyridin-6-yl)urea] | 
501 to 1500 nM |  | Cc1nc2c(C3CC3)c(NC(=O)Nc3cnc(-n4ccnn4)c(Cl)c3)cnc2s1 [Compound 61, 1-(5-Chloro-6-(1H-1,2,3-triazol-1-yl)pyridin-3-yl)-3-(7-cyclopropyl-2-methylthiazolo[5,4-b]pyridin-6-yl)urea] | 
101 to 250 nM |  | Cc1nc2c(C(C3CC3)N(C)C)c(NC(=O)Nc3cnc(-n4nccn4)c(C(F)(F)F)c3)cnc2s1 (stereo not drawn) [Compound 76a, 1-(6-(2H-1,2,3-Triazol-2-yl)-5-(trifluoromethyl)pyridin-3-yl)-3-(7-(cyclopropyl(dimethylamino)methyl)-2-methylthiazolo[5,4-b]pyridin-6-yl)urea] | 
 | 51 to 100 nM | Cc1ncn(-c2ccc(NC(=O)Nc3cnc4sc(C)nc4c3C3CC3)cc2C#N)n1 [Compound 171, 1-(3-Cyano-4-(3-methyl-1H-1,2,4-triazol-1-yl)phenyl)-3-(7-eyelopropyl-2-methylthiazolo[5,4-b]pyridin-6-yl)urea] | 101 to 500 nM
 | 51 to 100 nM | Cc1nc2c(C3CC3)c(NC(=O)Nc3ccc(-n4ncnc4C)c(C#N)c3)cnc2s1 [Compound 172, 1-(3-Cyano-4-(5-methyl-1H-1,2,4-triazol-1-yl)phenyl)-3-(7-eyelopropyl-2-methylthiazolo[5,4-b]pyridin-6-yl)urea] | 501 to 1500 nM
 | 1 to 50 nM | COCc1c(NC(=O)Nc2cnc(-n3nccn3)c(Cl)c2)cnc2sc(C)nc12 [Compound 176, 1-(5-Chloro-6-(2H-1,2,3-triazol-2-yl)pyridin-3-yl)-3-(7-(metdoxymethyl)-2-methylthiazolo[5,4-b]pyridin-6-yl)urea] | 101 to 500 nM
 | 1 to 50 nM | Cc1nc2c(C3(C)CC3)c(NC(=O)Nc3ccc(-n4nccn4)c(Cl)c3)cnc2s1 [Compound 179, 1-(3-Chloro-4-(2H-1,2,3-triazol-2-yl)phenyl)-3-(2-methyl-7-(1-methylcyclopropyl)thiazolo[5,4-b]pyridin-6-yl)urea] | 1 to 100 nM
 | 1 to 50 nM | Cc1nc2c(C(C)C)c(NC(=O)Nc3cnc(-n4nccn4)c(C(F)(F)F)c3)cnc2s1 [Compound 191, 1-(6-(2H-1,2,3-triazol-2-yl)-5-(trifluoromethyl)pyridin-3-yl)-3-(7-isopropyl-2-methylthiazolo[5,4-b]pyridin-6-yl)urea] | 1 to 100 nM
 | 51 to 100 nM | Cc1nc2c(C3CC3)c(NC(=O)Nc3cc(Cl)cnc3OCCN(C)C)cnc2s1 [Compound 195, 1-(5-Chloro-2-(2-(dimethylamino)ethoxy)pyridin-3-yl)-3-(7-cyclopropyl-2-methylthiazolo[5,4-b]pyridin-6-yl)urea] | 1 to 100 nM
